Assay results: patent US20090018111A1, “Novel Antimicrobial Medicament” (priority 2004, published 2009)
Read-outs that look alike come from different tables or passages of the source.

Tests used:
Test in all cases: Sensitivity test (agar dilution)
M. luteus ATCC9341 = format: cell-based, Micrococcus luteus; settings: Micrococcus luteus
Experimental: (§1) The antibacterial activities were tested against various 18 bacteria (27 standard strains) which are representative bacteria caused clinically infectious disease (Staphylococcus aureus 3 strains, Staphylococcus epidermidis 1 strain, Micrococcus luteus 1 strain, Streptococcus pyogenes 1 strain, Enterococcus faecalis 1 strain, Enterococcus faecium 1 strain, Bacillus subtilis 1 strain, Escherichia coli 3 strains, Klebsiella pneumoniae 1 strain, Proteus mirabilis 1 strain, Proteus vulgaris 2 strains, Pseudomonas aeruginosa 3 strains, Serratia marcescens 2 strains, Enterobacter aerogenes 1 strain, Stenotrophomonas maltophilia 1 strain, Enterobacter cloacae 1 strain, Citrobacter freundii 1 strain, Moraxella catarrhalis 2 strains).
(§2) According to the standard method of Japan Chemotherapeutic Society (Chemotherapy, vol. […], p 76-79 (1981)) the test was carried out using the agar dilution method. After dissolving test samples in distilled water, agar medium containing the test samples was prepared in such a manner that the final concentration became twice serial dilution by pouring serially diluted combination drug solution or a single drug solution into agar medium. As agar medium was used Mueller Hinton Agar medium (MHA). Then, each strain was cultivated over night at 37° C. in an incubator and suspended in buffered saline solution with gelatin (BSG) in the concentration of about 10^6 CFU/ml. The suspension (about 5 μl) containing test strains was inoculated to the medium containing the test samples by Micro Planter.
(§3) When the sample is subjected to sensitivity test, this mixed solution was diluted by twice serial dilution method.
(§4) Furthermore, when the drug is solely used, each test sample was used as it is, and diluted by twice serial dilution method from the maximum concentration to the minimum concentration.
(§5) FIC index based on MIC value was calculated. […] Namely, when FIC index calculated by the following formula is equal or less than 1, the enhanced effect of the combination drug in said ratio is considered as positive. When FIC index is over 1, the enhanced effect of the combination drug in said ratio is considered as negative.
(§6) Formula of FIC index: FIC index=(MIC of Drug A in combination/MIC of Drug A alone)+(MIC of Drug B in combination/MIC of Drug B alone) N.C. in tables means being not calculated.

S. epidermidis IAM1296 = format: cell-based, Staphylococcus epidermidis
Experimental: as §1, §2, §3, §4, §5, §6

P. vulgaris GN7919 = format: cell-based, Proteus vulgaris; settings: Proteus vulgaris
Experimental: as §1, §2, §3, §4, §5, §6

E. faecalis ATCC19433 = format: cell-based, Enterococcus faecalis; settings: Enterococcus faecalis
Experimental: as §1, §2, §3, §4, §5, §6

SMILES: C[C@H]1C=C(c2csc(SC3=C(C(=O)O)N4C(=O)[C@H]([C@@H](C)O)[C@H]4[C@H]3C)n2)CN1 [SM, (4R,5S,6S)-6-[(1R)-1-Hydroxyethyl]-4-methyl-3-({4-[(5S)-5-methyl-2,5-dihydro-1H-pyrrol-3-yl]-1,3-thiazol-2-yl}sulfanyl)-7-oxo-1-azabicyclo[3.2.0]hept-2-ene-2-carboxylic acid]
- MIC (M. luteus ATCC9341; ATCC9341, Concomitant (MEPM:SM = 1:1), read-out: MIC): ≤ 0.016 µg/mL
- MIC (M. luteus ATCC9341; ATCC9341, Concomitant (MEPM:SM = 1:2), read-out: MIC): ≤ 0.031 µg/mL
- MIC (M. luteus ATCC9341; ATCC9341, Concomitant (MEPM:SM = 1:4), read-out: MIC): ≤ 0.063 µg/mL
- MIC (M. luteus ATCC9341; ATCC9341, Concomitant (PAPM:SM = 1:1), M. luteus ATCC9341, read-out: MIC concomitant): ≤ 0.002 µg/mL
- MIC (M. luteus ATCC9341; ATCC9341, Concomitant (PIPC:SM = 1:1), M. luteus ATCC9341, read-out: MIC concomitant): ≤ 0.002 µg/mL
- MIC (M. luteus ATCC9341; ATCC9341, Concomitant drug (MEPM:SM = 2:1), read-out: MIC): ≤ 0.008 µg/mL
- MIC (M. luteus ATCC9341; ATCC9341, alone, read-out: MIC): ≤ 0.008 µg/mL
- MIC (M. luteus ATCC9341; ATCC9341, drug alone, M. luteus ATCC9341, read-out: MIC alone): 0.004 µg/mL
- MIC (S. epidermidis IAM1296; Staphylococcus epidermidis, IAM1296, Concomitant (AZT:SM = 1:1), S. epidermidis IAM1296, read-out: MIC concomitant): 0.031 µg/mL
- MIC (S. epidermidis IAM1296; Staphylococcus epidermidis, IAM1296, Concomitant (BIPM:SM = 1:1), S. epidermidis IAM1296, read-out: MIC concomitant): 0.031 µg/mL
- MIC (S. epidermidis IAM1296; Staphylococcus epidermidis, IAM1296, Concomitant (CAZ:SM = 1:1), S. epidermidis IAM1296, read-out: MIC concomitant): 0.031 µg/mL
- MIC (S. epidermidis IAM1296; Staphylococcus epidermidis, IAM1296, Concomitant (CPFX:SM = 1:1), S. epidermidis IAM1296, read-out: MIC concomitant): 0.031 µg/mL
- MIC (S. epidermidis IAM1296; Staphylococcus epidermidis, IAM1296, Concomitant (DRPM:SM = 1:1), S. epidermidis IAM1296, read-out: MIC concomitant): 0.031 µg/mL
- MIC (S. epidermidis IAM1296; Staphylococcus epidermidis, IAM1296, Concomitant (IPM:SM = 1:1), read-out: MIC): 0.016 µg/mL
- MIC (S. epidermidis IAM1296; Staphylococcus epidermidis, IAM1296, Concomitant (MEPM:SM = 1:1), read-out: MIC): ≤ 0.016 µg/mL
- MIC (S. epidermidis IAM1296; Staphylococcus epidermidis, IAM1296, Concomitant (MEPM:SM = 1:2), read-out: MIC): ≤ 0.031 µg/mL
- MIC (S. epidermidis IAM1296; Staphylococcus epidermidis, IAM1296, Concomitant (MEPM:SM = 1:4), read-out: MIC): ≤ 0.063 µg/mL
- MIC (S. epidermidis IAM1296; Staphylococcus epidermidis, IAM1296, Concomitant (PAPM:SM = 1:1), S. epidermidis IAM1296, read-out: MIC concomitant): 0.016 µg/mL
- MIC (S. epidermidis IAM1296; Staphylococcus epidermidis, IAM1296, Concomitant (PIPC:SM = 1:1), S. epidermidis IAM1296, read-out: MIC concomitant): 0.016 µg/mL
- MIC (S. epidermidis IAM1296; Staphylococcus epidermidis, IAM1296, Concomitant drug (MEPM:SM = 2:1), read-out: MIC): 0.031 µg/mL
- MIC (S. epidermidis IAM1296; Staphylococcus epidermidis, IAM1296, alone, read-out: MIC): 0.016 µg/mL
- MIC (S. epidermidis IAM1296; Staphylococcus epidermidis, IAM1296, drug alone, S. epidermidis IAM1296, read-out: MIC alone): 0.031 µg/mL
- MIC (S. epidermidis IAM1296; alone): 0.031 µg/mL
- MIC alone (S. epidermidis IAM1296; drug alone, S. epidermidis IAM1296): 0.016 µg/mL
- MIC (P. vulgaris GN7919; GN7919, Concomitant (AZT:SM = 1:1), P. vulgaris GN7919, read-out: MIC concomitant): 0.25 µg/mL
- MIC (P. vulgaris GN7919; GN7919, Concomitant (BIPM:SM = 1:1), P. vulgaris GN7919, read-out: MIC concomitant): 0.25 µg/mL
- MIC (P. vulgaris GN7919; GN7919, Concomitant (CAZ:SM = 1:1), P. vulgaris GN7919, read-out: MIC concomitant): 0.5 µg/mL
- MIC (P. vulgaris GN7919; GN7919, Concomitant (CPFX:SM = 1:1), P. vulgaris GN7919, read-out: MIC concomitant): 0.016 µg/mL
- MIC (P. vulgaris GN7919; GN7919, Concomitant (DRPM:SM = 1:1), P. vulgaris GN7919, read-out: MIC concomitant): 0.063 µg/mL
- MIC (P. vulgaris GN7919; GN7919, Concomitant (IPM:SM = 1:1), read-out: MIC): 0.5 µg/mL
- MIC (P. vulgaris GN7919; GN7919, Concomitant (MEPM:SM = 1:1), read-out: MIC): 0.031 µg/mL
- MIC (P. vulgaris GN7919; GN7919, Concomitant (MEPM:SM = 1:2), read-out: MIC): 0.063 µg/mL
- MIC (P. vulgaris GN7919; GN7919, Concomitant (MEPM:SM = 1:4), read-out: MIC): 0.125 µg/mL
- MIC (P. vulgaris GN7919; GN7919, Concomitant (PAPM:SM = 1:1), P. vulgaris GN7919, read-out: MIC concomitant): 0.5 µg/mL
- MIC (P. vulgaris GN7919; GN7919, Concomitant (PIPC:SM = 1:1), P. vulgaris GN7919, read-out: MIC concomitant): 0.5 µg/mL
- MIC (P. vulgaris GN7919; GN7919, Concomitant drug (MEPM:SM = 2:1), read-out: MIC): 0.016 µg/mL
- MIC (P. vulgaris GN7919; GN7919, alone, read-out: MIC): 1 µg/mL
- MIC (P. vulgaris GN7919; GN7919, drug alone, P. vulgaris GN7919, read-out: MIC alone): 1 µg/mL
- MIC (E. faecalis ATCC19433; ATCC19433, Concomitant (AZT:SM = 1:1), E. faecalis ATCC19433, read-out: MIC concomitant): 1 µg/mL
- MIC (E. faecalis ATCC19433; ATCC19433, Concomitant (BIPM:SM = 1:1), E. faecalis ATCC19433, read-out: MIC concomitant): 1 µg/mL
- MIC (E. faecalis ATCC19433; ATCC19433, Concomitant (CAZ:SM = 1:1), E. faecalis ATCC19433, read-out: MIC concomitant): 1 µg/mL
- MIC (E. faecalis ATCC19433; ATCC19433, Concomitant (CPFX:SM = 1:1), E. faecalis ATCC19433, read-out: MIC concomitant): 0.5 µg/mL
- MIC (E. faecalis ATCC19433; ATCC19433, Concomitant (DRPM:SM = 1:1), E. faecalis ATCC19433, read-out: MIC concomitant): 1 µg/mL
- MIC (E. faecalis ATCC19433; ATCC19433, Concomitant (IPM:SM = 1:1), read-out: MIC): 0.5 µg/mL
- MIC (E. faecalis ATCC19433; ATCC19433, Concomitant (MEPM:SM = 1:1), read-out: MIC): 1 µg/mL
- MIC (E. faecalis ATCC19433; ATCC19433, Concomitant (MEPM:SM = 1:2), read-out: MIC): 1 µg/mL
- MIC (E. faecalis ATCC19433; ATCC19433, Concomitant (MEPM:SM = 1:4), read-out: MIC): 1 µg/mL
